Measurements: patent publication US6355799B1, “Substituted benzene compounds, process for their preparation, and herbicidal and defoliant compositions containing them” (ISK Americas Incorporated, priority 1997, dated 2002)

Columns and labels:
Assay type in all cases: in vivo
[1] = system: redroot pigweed (Amaranthus retroflexus, AMARE); experiment: Pre-emerge test, greenhouse herbicide activity screening; conditions: rated 14 days after application, 0 = no damage, 100 = complete death
How it was run: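 Rating: 0–100 visual injury, 14 DAA. Application: acetone, 187 l/ha, 15–1000 g ai/ha, flat-fan track sprayer with nozzle 40–45 cm above soil or canopy. Post-emerge runs used 0.25% v/v surfactant on 2–3 leaf plants.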

[2] = system: upland rice (Oryza sp., var. Tebonnet, RICE); experiment: Post-emerge test, crop safety; conditions: post-emerge, 14 days after application, rating scale 0-100
How it was run: (§1)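 Fourteen days after spraying, crop and weed injury was graded visually from 0, no effect, to 100, every plant dead. Test substances were dissolved in acetone and applied at 15–1000 g ai/ha with a flat-fan nozzle. Application was either pre-emergence, one day after sowing, or post-emergence at the 2–3 leaf stage.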

[3] = system: field corn (Zea mays L., var. Dekalb 535, CORN); experiment: Post-emerge test, crop safety; conditions: post-emerge, 14 days after application, rating scale 0-100
How it was run: as §1

[4] = system: ivyleaf morningglory (Ipomoea hederacea, IPOHE); experiment: Post-emerge test, greenhouse herbicide activity screening; conditions: post-emerge, 14 days after application, rating scale 0-100
How it was run: (§2)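 Compounds in acetone were track-sprayed at 15-1000 g ai/ha (187 l/ha) on sandy loam pots: pre-emerge one day after seeding, post-emerge at 2-3 leaf stage with 0.25% v/v non-ionic surfactant. Phytotoxicity was rated 14 days later on a 0 (no damage) to 100 (complete death) scale.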

[5] = system: johnsongrass (Sorghum halepense, SORHA); experiment: as above; conditions: post-emerge, 14 days after application, rating scale 0-100
How it was run: as §2

[6] = system: sicklepod (Cassia obtusifolia, CASOB); experiment: as above; conditions: post-emerge, 14 days after application, rating scale 0-100
How it was run: as §2

[7] = system: redroot pigweed (Amaranthus retroflexus, AMARE); experiment: as above; conditions: post-emerge, 14 days after application, rating scale 0-100
How it was run: as §2

[8] = system: common ragweed (Ambrosia artemisizfolia L., AMBEL); experiment: as above; conditions: post-emerge, 14 days after application, rating scale 0-100
How it was run: as §2

[9] = system: barnyardgrass (Echinochloa crus-galli, ECHCG); experiment: as above; conditions: post-emerge, 14 days after application, rating scale 0-100
How it was run: as §2

[10] = system: green foxtail (Setaria viridis, SETVI); experiment: as above; conditions: post-emerge, 14 days after application, rating scale 0-100
How it was run: as §2

[11] = system: lambsquarters (Chenopodium album, CHEAL); experiment: as above; conditions: post-emerge, 14 days after application, rating scale 0-100
How it was run: as §2

[12] = system: velvetleaf (Abutilon theophrasti, ABUTH); experiment: as above; conditions: post-emerge, 14 days after application, rating scale 0-100
How it was run: as §2

[13] = system: large crabgrass (Digitaria sanguinalis, DIGSA); experiment: as above; conditions: post-emerge, 14 days after application, rating scale 0-100
How it was run: as §2

[14] = system: upland rice (Oryza sp., var. Tebonnet, RICE); experiment: Pre-emerge test, crop safety; conditions: rated 14 days after application, 0 = no damage, 100 = complete death
How it was run: (§3)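 Sandy loam pots; pre-emerge: sown 1 d pre-spray, surface-watered after, then bottom-watered. Post-emerge: sown 8–21 d before, 2–3 leaf stage, + 0.25% v/v NIS, bottom-watered. Acetone, 187 l/ha track spray, 15–1000 g ai/ha. 0–100 injury score, day 14.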

[15] = system: field corn (Zea mays L., var. Dekalb 535, CORN); experiment: Pre-emerge test, crop safety; conditions: rated 14 days after application, 0 = no damage, 100 = complete death
How it was run: as §3

[16] = system: ivyleaf morningglory (Ipomoea hederacea, IPOHE); experiment: Pre-emerge test, greenhouse herbicide activity screening; conditions: rated 14 days after application, 0 = no damage, 100 = complete death
How it was run: as §1

[17] = system: johnsongrass (Sorghum halepense, SORHA); experiment: as above; conditions: rated 14 days after application, 0 = no damage, 100 = complete death
How it was run: as §1

[18] = system: sicklepod (Cassia obtusifolia, CASOB); experiment: as above; conditions: rated 14 days after application, 0 = no damage, 100 = complete death
How it was run: as §1

[19] = system: common ragweed (Ambrosia artemisizfolia L., AMBEL); experiment: as above; conditions: rated 14 days after application, 0 = no damage, 100 = complete death
How it was run: as §1

[20] = system: barnyardgrass (Echinochloa crus-galli, ECHCG); experiment: as above; conditions: rated 14 days after application, 0 = no damage, 100 = complete death
How it was run: as §1

[21] = system: green foxtail (Setaria viridis, SETVI); experiment: as above; conditions: rated 14 days after application, 0 = no damage, 100 = complete death
How it was run: as §1

[22] = system: lambsquarters (Chenopodium album, CHEAL); experiment: as above; conditions: rated 14 days after application, 0 = no damage, 100 = complete death
How it was run: as §1

[23] = system: velvetleaf (Abutilon theophrasti, ABUTH); experiment: as above; conditions: rated 14 days after application, 0 = no damage, 100 = complete death
How it was run: as §1

[24] = system: large crabgrass (Digitaria sanguinalis, DIGSA); experiment: as above; conditions: rated 14 days after application, 0 = no damage, 100 = complete death
How it was run: as §1

## COc1ccc(C(=O)Nc2c(OC)c(Cl)cc(F)c2-n2c(=O)cc(C(F)(F)F)n(C)c2=O)cc1 [2-63]
[1]; 63 g ai/ha
  Pre-emerge Herbicidal Activity, phytotoxicity rating (0-100), AMARE: 100
[1]; 250 g ai/ha
  Pre-emerge Herbicidal Activity, phytotoxicity rating (0-100), AMARE: 100
[2]; 63 g ai/ha
  phytotoxicity rating RICE: 70
[2]; 250 g ai/ha
  phytotoxicity rating RICE: 95
[3]; 63 g ai/ha
  phytotoxicity rating CORN: 50
[3]; 250 g ai/ha
  phytotoxicity rating CORN: 95
[4]; 63 g ai/ha
  phytotoxicity rating IPOHE: 100
[4]; 250 g ai/ha
  phytotoxicity rating IPOHE: 100
[5]; 63 g ai/ha
  phytotoxicity rating SORHA: 20
[5]; 250 g ai/ha
  phytotoxicity rating SORHA: 100
[6]; 63 g ai/ha
  phytotoxicity rating CASOB: 100
[6]; 250 g ai/ha
  phytotoxicity rating CASOB: 100
[7]; 63 g ai/ha
  phytotoxicity rating AMARE: 100
[7]; 250 g ai/ha
  phytotoxicity rating AMARE: 100
[8]; 63 g ai/ha
  phytotoxicity rating AMBEL: 80
[8]; 250 g ai/ha
  phytotoxicity rating AMBEL: 100
[9]; 63 g ai/ha
  phytotoxicity rating ECHCG: 10
[9]; 250 g ai/ha
  phytotoxicity rating ECHCG: 100
[10]; 63 g ai/ha
  phytotoxicity rating SETVI: 50
[10]; 250 g ai/ha
  phytotoxicity rating SETVI: 95
[11]; 63 g ai/ha
  phytotoxicity rating CHEAL: 99
[11]; 250 g ai/ha
  phytotoxicity rating CHEAL: 100
[12]; 63 g ai/ha
  phytotoxicity rating ABUTH: 100
[12]; 250 g ai/ha
  phytotoxicity rating ABUTH: 100
[13]; 63 g ai/ha
  phytotoxicity rating DIGSA: 0
[13]; 250 g ai/ha
  phytotoxicity rating DIGSA: 70
[14]; 63 g ai/ha
  Pre-emerge phytotoxicity rating (0-100), crop damage, RICE: 95
[14]; 250 g ai/ha
  Pre-emerge phytotoxicity rating (0-100), crop damage, RICE: 100
[15]; 63 g ai/ha
  Pre-emerge phytotoxicity rating (0-100), crop damage, CORN: 60
[15]; 250 g ai/ha
  Pre-emerge phytotoxicity rating (0-100), crop damage, CORN: 100
[16]; 63 g ai/ha
  Pre-emerge Herbicidal Activity, phytotoxicity rating (0-100), IPOHE: 100
[16]; 250 g ai/ha
  Pre-emerge Herbicidal Activity, phytotoxicity rating (0-100), IPOHE: 100
[17]; 63 g ai/ha
  Pre-emerge Herbicidal Activity, phytotoxicity rating (0-100), SORHA: 90
[17]; 250 g ai/ha
  Pre-emerge Herbicidal Activity, phytotoxicity rating (0-100), SORHA: 100
[18]; 63 g ai/ha
  Pre-emerge Herbicidal Activity, phytotoxicity rating (0-100), CASOB: 100
[18]; 250 g ai/ha
  Pre-emerge Herbicidal Activity, phytotoxicity rating (0-100), CASOB: 100
[19]; 63 g ai/ha
  Pre-emerge Herbicidal Activity, phytotoxicity rating (0-100), AMBEL: 100
[19]; 250 g ai/ha
  Pre-emerge Herbicidal Activity, phytotoxicity rating (0-100), AMBEL: 100
[20]; 63 g ai/ha
  Pre-emerge Herbicidal Activity, phytotoxicity rating (0-100), ECHCG: 95
[20]; 250 g ai/ha
  Pre-emerge Herbicidal Activity, phytotoxicity rating (0-100), ECHCG: 100
[21]; 63 g ai/ha
  Pre-emerge Herbicidal Activity, phytotoxicity rating (0-100), SETVI: 100
[21]; 250 g ai/ha
  Pre-emerge Herbicidal Activity, phytotoxicity rating (0-100), SETVI: 100
[22]; 63 g ai/ha
  Pre-emerge Herbicidal Activity, phytotoxicity rating (0-100), CHEAL: 100
[22]; 250 g ai/ha
  Pre-emerge Herbicidal Activity, phytotoxicity rating (0-100), CHEAL: 100
[23]; 63 g ai/ha
  Pre-emerge Herbicidal Activity, phytotoxicity rating (0-100), ABUTH: 100
[23]; 250 g ai/ha
  Pre-emerge Herbicidal Activity, phytotoxicity rating (0-100), ABUTH: 100
[24]; 63 g ai/ha
  Pre-emerge Herbicidal Activity, phytotoxicity rating (0-100), DIGSA: 100
[24]; 250 g ai/ha
  Pre-emerge Herbicidal Activity, phytotoxicity rating (0-100), DIGSA: 100
